Results taken from PMC4247381, “Control of somatic membrane potential in nociceptive neurons and its implications for peripheral nociceptive transmission” (Pain, 2014).
Where two headings read alike, the source gives them in different places.

Legend:
Kv7.2/Kv7.3 = target: T1, Kv7.2/Kv7.3 (Homo sapiens, UniProt O43525+O43526); assay: Rb+ efflux assay and whole-cell patch clamp in CHO cells expressing Kv7.[…]/Kv7.[…] (activator); format: cell-based
T1 construct: gene KCNQ2; with Kv7.3 (KCNQ3)

Cav3.2 = target: T2, Cav3.2 (Homo sapiens, UniProt O95180); assay: whole-cell patch clamp of recombinant human Cav3.[…] in HEK293 cells (enhancer); format: cell-based
T2 construct: gene CACNA1H
T2 sequence (O95180 whole entry): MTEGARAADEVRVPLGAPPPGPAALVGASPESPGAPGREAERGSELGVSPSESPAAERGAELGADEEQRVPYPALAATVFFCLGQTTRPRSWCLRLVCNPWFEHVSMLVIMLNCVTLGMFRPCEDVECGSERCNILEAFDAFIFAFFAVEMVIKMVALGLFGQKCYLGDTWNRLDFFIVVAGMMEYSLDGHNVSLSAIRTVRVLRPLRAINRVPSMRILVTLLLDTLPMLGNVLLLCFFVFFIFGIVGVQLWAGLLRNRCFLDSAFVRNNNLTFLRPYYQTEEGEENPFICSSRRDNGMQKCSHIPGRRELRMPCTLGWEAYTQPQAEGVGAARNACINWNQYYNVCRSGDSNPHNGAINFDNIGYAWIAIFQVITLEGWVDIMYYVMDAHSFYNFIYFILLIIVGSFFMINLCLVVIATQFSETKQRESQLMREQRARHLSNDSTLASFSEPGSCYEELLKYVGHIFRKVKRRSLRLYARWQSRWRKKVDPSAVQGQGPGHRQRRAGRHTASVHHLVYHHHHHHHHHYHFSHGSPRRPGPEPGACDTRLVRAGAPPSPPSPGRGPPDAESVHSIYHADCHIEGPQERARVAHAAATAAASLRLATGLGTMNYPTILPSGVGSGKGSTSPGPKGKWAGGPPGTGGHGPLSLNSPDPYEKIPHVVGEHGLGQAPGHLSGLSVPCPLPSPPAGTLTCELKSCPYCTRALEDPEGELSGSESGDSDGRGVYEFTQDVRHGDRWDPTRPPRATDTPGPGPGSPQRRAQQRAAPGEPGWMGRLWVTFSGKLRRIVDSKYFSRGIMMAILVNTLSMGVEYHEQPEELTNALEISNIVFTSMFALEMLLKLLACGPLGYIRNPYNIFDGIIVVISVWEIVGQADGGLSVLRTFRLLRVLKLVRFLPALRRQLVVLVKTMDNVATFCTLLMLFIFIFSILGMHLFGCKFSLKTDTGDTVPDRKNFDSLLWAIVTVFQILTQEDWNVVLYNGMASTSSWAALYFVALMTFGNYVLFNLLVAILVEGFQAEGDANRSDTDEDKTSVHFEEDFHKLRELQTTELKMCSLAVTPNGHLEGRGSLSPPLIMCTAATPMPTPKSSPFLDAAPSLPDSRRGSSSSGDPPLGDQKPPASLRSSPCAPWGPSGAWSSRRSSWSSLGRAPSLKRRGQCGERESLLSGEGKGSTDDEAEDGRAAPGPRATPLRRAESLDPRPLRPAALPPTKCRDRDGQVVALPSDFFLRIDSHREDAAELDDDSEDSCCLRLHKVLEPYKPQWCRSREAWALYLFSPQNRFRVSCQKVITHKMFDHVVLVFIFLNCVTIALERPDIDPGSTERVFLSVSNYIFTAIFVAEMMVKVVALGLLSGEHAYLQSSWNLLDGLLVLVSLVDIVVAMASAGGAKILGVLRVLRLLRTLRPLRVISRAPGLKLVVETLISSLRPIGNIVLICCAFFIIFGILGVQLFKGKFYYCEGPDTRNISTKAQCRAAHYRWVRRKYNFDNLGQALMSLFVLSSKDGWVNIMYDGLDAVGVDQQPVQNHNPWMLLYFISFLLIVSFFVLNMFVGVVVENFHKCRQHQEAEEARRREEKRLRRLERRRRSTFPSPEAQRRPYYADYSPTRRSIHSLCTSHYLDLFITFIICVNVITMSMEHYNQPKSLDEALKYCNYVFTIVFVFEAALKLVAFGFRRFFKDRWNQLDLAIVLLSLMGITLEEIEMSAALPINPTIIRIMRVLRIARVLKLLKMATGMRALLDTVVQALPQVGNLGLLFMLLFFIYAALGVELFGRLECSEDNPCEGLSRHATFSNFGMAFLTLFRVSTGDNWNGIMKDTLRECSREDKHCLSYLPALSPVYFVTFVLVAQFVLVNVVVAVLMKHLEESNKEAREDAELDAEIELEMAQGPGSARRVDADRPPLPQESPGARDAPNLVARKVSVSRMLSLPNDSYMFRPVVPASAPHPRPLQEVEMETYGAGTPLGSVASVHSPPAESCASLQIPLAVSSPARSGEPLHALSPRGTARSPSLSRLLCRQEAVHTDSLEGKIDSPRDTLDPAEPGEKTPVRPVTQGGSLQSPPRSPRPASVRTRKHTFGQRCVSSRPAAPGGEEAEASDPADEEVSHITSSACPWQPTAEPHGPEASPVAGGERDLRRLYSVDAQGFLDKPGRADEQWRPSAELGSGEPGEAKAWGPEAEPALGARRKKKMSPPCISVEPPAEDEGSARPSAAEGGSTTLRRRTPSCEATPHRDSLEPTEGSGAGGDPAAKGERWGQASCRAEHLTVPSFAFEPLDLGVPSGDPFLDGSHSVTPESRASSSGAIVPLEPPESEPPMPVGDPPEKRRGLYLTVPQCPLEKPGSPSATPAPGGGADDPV

T1 sequence (O43526 whole entry): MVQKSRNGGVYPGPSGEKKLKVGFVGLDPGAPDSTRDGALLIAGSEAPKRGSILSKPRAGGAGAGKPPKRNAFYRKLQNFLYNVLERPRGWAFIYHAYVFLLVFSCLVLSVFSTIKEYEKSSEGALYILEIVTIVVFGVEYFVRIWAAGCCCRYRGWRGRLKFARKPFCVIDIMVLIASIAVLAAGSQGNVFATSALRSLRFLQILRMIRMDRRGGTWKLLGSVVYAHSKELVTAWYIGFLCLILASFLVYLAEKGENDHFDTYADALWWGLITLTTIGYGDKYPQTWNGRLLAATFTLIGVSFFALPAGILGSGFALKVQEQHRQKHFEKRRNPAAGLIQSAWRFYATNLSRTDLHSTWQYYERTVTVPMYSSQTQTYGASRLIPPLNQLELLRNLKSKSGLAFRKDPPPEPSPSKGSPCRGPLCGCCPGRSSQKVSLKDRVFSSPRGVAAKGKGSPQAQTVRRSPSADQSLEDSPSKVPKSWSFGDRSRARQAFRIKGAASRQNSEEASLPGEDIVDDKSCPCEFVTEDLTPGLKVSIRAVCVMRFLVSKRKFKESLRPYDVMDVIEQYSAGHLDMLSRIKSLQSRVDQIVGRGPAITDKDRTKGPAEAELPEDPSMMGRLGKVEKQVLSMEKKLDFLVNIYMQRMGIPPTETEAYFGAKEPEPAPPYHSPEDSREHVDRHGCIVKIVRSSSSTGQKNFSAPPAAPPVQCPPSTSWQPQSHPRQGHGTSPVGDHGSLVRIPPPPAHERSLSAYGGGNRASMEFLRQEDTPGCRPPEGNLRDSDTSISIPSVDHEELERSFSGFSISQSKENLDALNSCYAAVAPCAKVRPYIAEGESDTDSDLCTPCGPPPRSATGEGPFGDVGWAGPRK
T1 sequence (O43525 whole entry): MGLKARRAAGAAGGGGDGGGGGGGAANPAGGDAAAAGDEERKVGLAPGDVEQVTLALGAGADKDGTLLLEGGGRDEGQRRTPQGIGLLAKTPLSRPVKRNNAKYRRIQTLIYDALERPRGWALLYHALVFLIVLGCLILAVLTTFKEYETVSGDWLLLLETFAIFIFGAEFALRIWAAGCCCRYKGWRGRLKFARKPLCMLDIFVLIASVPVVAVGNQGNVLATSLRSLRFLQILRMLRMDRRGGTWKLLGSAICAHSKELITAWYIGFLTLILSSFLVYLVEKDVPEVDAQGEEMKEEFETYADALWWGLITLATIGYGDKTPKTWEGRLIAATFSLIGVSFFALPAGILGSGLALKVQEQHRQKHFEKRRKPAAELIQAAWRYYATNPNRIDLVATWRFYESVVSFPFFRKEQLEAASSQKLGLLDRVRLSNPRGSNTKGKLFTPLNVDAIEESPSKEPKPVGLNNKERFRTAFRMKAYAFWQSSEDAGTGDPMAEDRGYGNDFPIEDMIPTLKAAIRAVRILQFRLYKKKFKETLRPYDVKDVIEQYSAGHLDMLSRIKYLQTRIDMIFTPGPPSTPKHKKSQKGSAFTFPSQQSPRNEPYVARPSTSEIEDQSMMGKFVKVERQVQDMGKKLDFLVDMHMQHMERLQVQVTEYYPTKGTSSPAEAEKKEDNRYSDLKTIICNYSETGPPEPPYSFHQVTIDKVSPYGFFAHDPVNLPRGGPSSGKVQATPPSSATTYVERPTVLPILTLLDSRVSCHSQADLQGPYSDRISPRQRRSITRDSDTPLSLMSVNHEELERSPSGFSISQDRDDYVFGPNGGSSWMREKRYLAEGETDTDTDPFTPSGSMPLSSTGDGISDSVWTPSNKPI

Molecule `Oc1c(Cl)cc(Cl)cc1Sc1cc(Cl)cc(Cl)c1O` [BITH, Bithionol] has an EC50 (Kv7.2/Kv7.3; read-out: EC50) of 4.9 ± 1.08 µM.

With `CCOC(=O)Nc1ccc(NCc2ccc(F)cc2)cc1N` [RTG, Retigabine] the EC50 (Kv7.2/Kv7.3) was 0.7 ± 0.09 µM.

For `O=C1N=C2C=CC=CN2C12Cc1ccccc1C2` [ST101, spiro[imidazo[1,2-a]pyridine-3,2-indan]-2(3H)-one], the EC50 (Cav3.2) was 0.00012 ± 4e-05 µM.
